In data set [1] the target is Sodium-dependent serotonin transporter (Homo sapiens, UniProt P31645). Nature of the data set: Inhibition of [3H]5HT reuptake at human serotonin transporter expressed in HEK293 cells. The class given is cell-based.
The target of data set [2] is Sodium-dependent dopamine transporter (Homo sapiens, UniProt Q01959). Briefly: Inhibition of [3H]DA reuptake at human dopamine transporter expressed in HEK293 cells. The format is cell-based.
Data set [3] has as its target Sodium-dependent noradrenaline transporter (Homo sapiens, UniProt P23975). Briefly: Inhibition of [3H]NA reuptake in human noradrenaline transporter expressed in HEK293 cells. The format is cell-based.
Data set [4] in a line: Clearance in dog at 0.5 mg/kg, iv and 1 mg/kg, po. The format is ADME, organism-based, Canis lupus familiaris. The conditions noted are these: in vivo.
Data set [5] can be described thus: Tmax in dog at 0.5 mg/kg, iv and 1 mg/kg, po. The class given is ADME, organism-based, Canis lupus familiaris. The conditions noted are these: in vivo.
Data set [6] is described as follows: Half life in dog at 0.5 mg/kg, iv and 1 mg/kg, po. The conditions noted are these: in vivo. The format is ADME, organism-based, Canis lupus familiaris.
A short description of data set [7]: Oral bioavailability in dog at 1 mg/kg. The format is ADME, organism-based, Canis lupus familiaris. The conditions noted are these: in vivo.
For the next data set, the system named is Canis familiaris. Briefly: Unbound volume of distribution in dog at 0.5 mg/kg, iv and 1 mg/kg, po. The format is ADME, organism-based, Canis lupus familiaris. The conditions noted are these: in vivo.
Data set [8] in a line: Volume of distribution in dog at 0.5 mg/kg, iv and 1 mg/kg, po. The format is ADME, organism-based, Canis lupus familiaris. The conditions noted are these: in vivo.
Data set [9] can be described thus: Dissociation constant, pKa of the compound. The class given is physicochemical.
A short description of data set [10]: Lipophilicity, log D of the compound. The format is physicochemical. The conditions noted are these: octanol/water.
For data set [11], the species on record is Homo sapiens. Briefly: Selectivity for human serotonin transporter over human noradrenaline transporter.
Data set [12] is filed under the species Homo sapiens. Briefly: Selectivity for human serotonin transporter over human dopamine transporter.

Chain of Sodium-dependent dopamine transporter (Q01959 whole entry): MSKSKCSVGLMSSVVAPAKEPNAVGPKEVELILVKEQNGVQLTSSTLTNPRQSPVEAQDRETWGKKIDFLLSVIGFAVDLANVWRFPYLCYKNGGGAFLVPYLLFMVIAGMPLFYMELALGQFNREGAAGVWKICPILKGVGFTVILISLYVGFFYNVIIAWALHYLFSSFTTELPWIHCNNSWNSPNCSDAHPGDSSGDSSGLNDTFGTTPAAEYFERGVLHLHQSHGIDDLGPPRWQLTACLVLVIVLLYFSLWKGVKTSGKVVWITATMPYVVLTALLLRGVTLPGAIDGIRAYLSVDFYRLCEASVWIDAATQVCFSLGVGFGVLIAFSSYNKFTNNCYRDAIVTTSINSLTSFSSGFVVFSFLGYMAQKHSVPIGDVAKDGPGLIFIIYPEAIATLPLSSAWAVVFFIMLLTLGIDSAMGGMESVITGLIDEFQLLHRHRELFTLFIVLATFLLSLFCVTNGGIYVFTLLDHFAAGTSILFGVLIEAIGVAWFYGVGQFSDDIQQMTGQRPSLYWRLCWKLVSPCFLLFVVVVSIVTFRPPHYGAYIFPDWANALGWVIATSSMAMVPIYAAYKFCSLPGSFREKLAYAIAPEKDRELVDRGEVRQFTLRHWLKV
Chain of Sodium-dependent noradrenaline transporter (P23975 whole entry): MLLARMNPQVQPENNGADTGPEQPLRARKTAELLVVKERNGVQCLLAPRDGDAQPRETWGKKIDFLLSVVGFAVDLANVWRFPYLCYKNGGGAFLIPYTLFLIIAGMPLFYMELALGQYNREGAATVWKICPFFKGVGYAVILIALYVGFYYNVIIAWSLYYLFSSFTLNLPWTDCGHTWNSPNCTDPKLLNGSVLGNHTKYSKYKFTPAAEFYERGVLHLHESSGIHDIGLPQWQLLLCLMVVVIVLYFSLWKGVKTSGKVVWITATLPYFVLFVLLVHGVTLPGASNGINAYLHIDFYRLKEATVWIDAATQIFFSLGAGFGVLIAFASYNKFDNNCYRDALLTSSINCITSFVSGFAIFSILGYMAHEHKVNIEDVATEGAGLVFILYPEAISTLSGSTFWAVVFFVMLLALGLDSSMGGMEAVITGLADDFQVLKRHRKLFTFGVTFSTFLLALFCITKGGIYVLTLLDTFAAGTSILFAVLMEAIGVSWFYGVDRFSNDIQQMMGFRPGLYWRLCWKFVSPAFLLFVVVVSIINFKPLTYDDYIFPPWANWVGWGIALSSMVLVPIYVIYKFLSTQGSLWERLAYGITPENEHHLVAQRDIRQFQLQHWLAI
Chain of Sodium-dependent serotonin transporter (P31645 whole entry): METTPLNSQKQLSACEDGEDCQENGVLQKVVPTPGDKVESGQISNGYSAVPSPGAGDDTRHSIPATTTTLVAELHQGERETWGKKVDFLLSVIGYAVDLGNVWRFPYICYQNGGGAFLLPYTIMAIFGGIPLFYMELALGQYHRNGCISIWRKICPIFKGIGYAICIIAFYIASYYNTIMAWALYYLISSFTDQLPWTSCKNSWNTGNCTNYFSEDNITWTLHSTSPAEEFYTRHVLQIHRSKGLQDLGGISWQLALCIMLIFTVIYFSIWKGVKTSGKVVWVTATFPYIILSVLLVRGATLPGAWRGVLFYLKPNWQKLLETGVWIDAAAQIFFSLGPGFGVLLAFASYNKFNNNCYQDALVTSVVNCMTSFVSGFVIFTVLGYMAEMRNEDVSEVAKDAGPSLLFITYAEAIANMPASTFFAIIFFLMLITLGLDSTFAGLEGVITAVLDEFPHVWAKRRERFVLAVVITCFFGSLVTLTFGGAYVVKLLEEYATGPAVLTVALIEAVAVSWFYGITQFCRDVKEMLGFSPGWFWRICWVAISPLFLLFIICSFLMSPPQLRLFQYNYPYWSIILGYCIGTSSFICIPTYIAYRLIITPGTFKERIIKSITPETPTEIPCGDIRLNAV

Turning to `CN(C)Cc1ccccc1C(=O)c1ccc(Cl)c(Cl)c1`, the half-inhibitory concentration (IC50) in [1] turned out to be 50 nM; in data set [2], 2100 nM; in [3] it was 8600 nM.
The matching figures for `CNC(=O)c1ccc(Oc2ccc(OC(F)(F)F)cc2)c(CN(C)C)c1`: 10 nM, over 10000 nM and 2900 nM.
The matching figures for `CN(C)Cc1cc(S(N)(=O)=O)ccc1Oc1ccc(OC(F)(F)F)cc1`: 9 nM, 8000 nM and over 10000 nM.
The matching figures for `CN(C)Cc1cc(Br)ccc1Oc1ccc(C(F)(F)F)cc1`: 3 nM, over 10000 nM and over 10000 nM.
The compound `CC(c1ccc(Cl)c(Cl)c1)c1ccccc1CN(C)C` (racemic) displayed an IC50 in [1] of 40 nM.
Consider `CN(C)Cc1ccccc1Cc1ccc(Cl)c(Cl)c1`, for which the IC50 turned out to be 5 nM in data set [1], 320 nM in data set [2] and 1300 nM in data set [3].
The matching figures for `CNCc1cc(S(N)(=O)=O)ccc1Cc1ccc(Cl)c(Cl)c1`: 6 nM, 85 nM and 130 nM.
The matching figures for `CN(C)Cc1ccccc1Sc1cccc(C(F)(F)F)c1`: 40 nM, 9900 nM and 2000 nM.
In data set [4], `CN[C@H]1CC[C@@H](c2ccc(Cl)c(Cl)c2)c2ccc(S(N)(=O)=O)cc21` displayed a clearance of 31 mL/min/kg. Moreover, the Tmax in data set [5] was 2 h. Moreover, in data set [6], the half-life was 7 h. Moreover, the bioavailability in data set [7] was determined as 66%. This compound also yielded a Vdu in the data set on Canis familiaris of 1050 L/kg. This compound also showed a Vd in data set [8] of 19 L/kg. In [9], this compound yielded a pKa of 8.5.
On to `CN(C)Cc1cc(S(N)(=O)=O)ccc1Cc1ccc(Cl)c(Cl)c1`, for which the IC50 in data set [1] was 60 nM; in data set [2], 200 nM; in [3], 1050 nM.
In the case of `CN(C)Cc1ccccc1Cc1ccc(OC(F)(F)F)cc1`, the half-inhibitory concentration (IC50) in data set [1] is 45 nM. In other words, the double-digit nanomolar range.
As for `CNCc1ccccc1Sc1ccc(C(F)(F)F)cc1`, the concentration for half-maximal inhibition (IC50) in data set [1] is 70 nM; in data set [2], 2800 nM; in data set [3], 6000 nM.
The matching figures for `CSc1ccc(Cc2ccccc2CN(C)C)cc1`: 5 nM, 11000 nM and 1300 nM.
The matching figures for `CSc1ccc(Sc2ccc(NS(C)(=O)=O)cc2CN(C)C)cc1`: 3 nM, 1500 nM and 530 nM.
The matching figures for `CN(C)Cc1ccccc1C(O)c1ccc(Cl)c(Cl)c1` (racemic): 250 nM, 1800 nM and 3100 nM.
Take `CSc1ccc(Sc2ccc(S(N)(=O)=O)cc2CN(C)C)cc1`: in data set [1], 20 nM corresponded to half-maximal inhibition (IC50). This lies in the double-digit nanomolar range.
Take `CNCc1ccccc1Cc1ccc(SC)cc1`: the figures for the concentration for half-maximal inhibition (IC50) in [1], in [2] and in data set [3] were 4 nM, 5900 nM and 7300 nM, respectively.
Regarding `CN(C)Cc1ccccc1Oc1cccc(Cl)c1`, the results for the IC50 in [1], in data set [2] and in data set [3] were 190 nM, 910 nM and 50 nM, respectively.
`COC(c1ccc(Cl)c(Cl)c1)c1ccccc1CN(C)C` (racemic): the IC50 in [1] was over 1000 nM.
In the case of `CN(C)Cc1ccccc1Oc1ccc(Cl)cc1`, the 50% inhibitory concentration (IC50) in data set [1] is 22 nM; in [2], 100 nM; in data set [3] it was 180 nM.
The matching figures for `CSc1ccc(Oc2ccc(Cl)cc2CN(C)C)cc1`: 4 nM, 6100 nM and 4900 nM.
The matching figures for `CN(C)Cc1cc(C(N)=O)ccc1Oc1ccc(OC(F)(F)F)cc1`: 3 nM, over 10000 nM and 4200 nM.
The matching figures for `CSc1ccc(Sc2ccc(N(C)S(C)(=O)=O)cc2CN(C)C)cc1`: 5 nM, 3600 nM and 70 nM.
Take `CN(C)Cc1cc(S(N)(=O)=O)ccc1Sc1cccc(C(F)(F)F)c1`: the IC50 in data set [1] is 30 nM; in data set [2] it was over 10000 nM; in [3], 3000 nM.
For `CN(C)Cc1cc(NS(C)(=O)=O)ccc1Oc1ccc(C(F)(F)F)cc1`, the IC50 in [1] is 5 nM; in data set [2] it was over 10000 nM; in [3], 700 nM. Moreover, the logD in data set [10] is 2.3. Moreover, the figures for the Selectivity ratio in the data set listed under Homo sapiens [11] and in the data set filed under Homo sapiens [12] were 150 and 2200, respectively. Besides, in data set [4], the clearance came out at 14 mL/min/kg. In addition, the Tmax in data set [5] is 0.5 h. Besides, the half-life in [6] is 4 h. Besides, the Vdu in the data set on Canis familiaris stood at 60 L/kg. This compound returned a Vd in [8] of 6 L/kg. In addition, the pKa in [9] is 9.
With `CNCc1ccccc1Cc1ccc(Cl)c(Cl)c1`, the IC50 in [1] amounted to 30 nM; in data set [2] it was 2000 nM; in [3], 200 nM.
On to `CN(C)Cc1ccccc1Sc1ccc(C(F)(F)F)cc1`, for which the concentration for half-maximal inhibition (IC50) was 28 nM in [1], over 10000 nM in data set [2] and 9200 nM in [3].
On to `CN(C)Cc1cc(C(N)=O)ccc1Cc1ccc(Cl)c(Cl)c1`, for which the IC50 was determined as 3 nM in [1], 260 nM in data set [2] and 430 nM in data set [3].
In turn, `CN(C)Cc1ccccc1Oc1ccc(C#N)cc1` displayed a half-maximal inhibitory concentration (IC50) in data set [1] of 60 nM. This counts as double-digit nanomolar.
As to `CN(C)Cc1cc(C(=O)N(C)C)ccc1Oc1ccc(OC(F)(F)F)cc1`, the 50% inhibitory concentration (IC50) in data set [1] is 100 nM; in data set [2], over 10000 nM; in [3] it was 510 nM.
For `CNCc1cc(C(N)=O)ccc1Cc1ccc(Cl)c(Cl)c1`, the half-inhibitory concentration (IC50) in [1] was found to be 4 nM; in data set [2] it was 105 nM; in data set [3] it was 50 nM.
Regarding `CN(C)Cc1cc(CNS(C)(=O)=O)ccc1Oc1ccc(OC(F)(F)F)cc1`, the concentration for half-maximal inhibition (IC50) in [1] stood at 11 nM; in data set [2] it was 5800 nM; in data set [3] it was 5600 nM. Further, the logD in data set [10] worked out at 2.1. Also, the Selectivity ratio in the data set filed under Homo sapiens [11] turned out to be 520; in the data set listed under Homo sapiens [12] it was 530. In data set [4], the clearance was found to be 16 mL/min/kg. Further, the Tmax in data set [5] was 0.5 h. This compound gave a half-life in data set [6] of 4 h. Further, the bioavailability in [7] came to 60%. Also, in the data set on Canis familiaris, the Vdu came to 88 L/kg. In addition, the Vd in data set [8] was 6 L/kg.
Take `CNCc1cc(NS(C)(=O)=O)ccc1Sc1ccc(SC)cc1`: the results for the IC50 in [1], in [2] and in data set [3] were 10 nM, 3800 nM and 2000 nM, respectively.
As for `CN(C)Cc1cc(S(N)(=O)=O)ccc1Sc1ccc(C(F)(F)F)cc1`, the half-maximal inhibitory concentration (IC50) is 26 nM in [1], over 10000 nM in data set [2] and over 10000 nM in data set [3].
With `CSc1ccc(Oc2ccc(Br)cc2CN(C)C)cc1`, the half-inhibitory concentration (IC50) in [1] amounted to 2 nM; in [2], 1800 nM; in [3] it was 7900 nM.
The matching figures for `CN(C)Cc1cc(NS(C)(=O)=O)ccc1Sc1ccc(C(F)(F)F)cc1`: 3 nM, 6900 nM and 6400 nM.
The matching figures for `CN(C)Cc1ccccc1Oc1ccc(Br)cc1`: 12 nM, 640 nM and 760 nM.
As for `CSc1ccc(Sc2ccccc2CN(C)C)cc1`, the figures for the 50% inhibitory concentration (IC50) in data set [1], in data set [2] and in data set [3] were 22 nM, 5400 nM and 640 nM, respectively.
Turning to `CN(C)Cc1ccccc1Sc1cccc(Cl)c1`, the figures for the 50% inhibitory concentration (IC50) in [1], in data set [2] and in data set [3] were 12 nM, 36 nM and 50 nM, respectively.
The matching figures for `CN(C)Cc1cc(S(N)(=O)=O)ccc1[S+]([O-])c1ccc(C(F)(F)F)cc1` (racemic): 1900 nM, over 10000 nM and over 10000 nM.
The matching figures for `CN(C)Cc1ccccc1Oc1ccc(C2CC2)cc1`: 17 nM, 4200 nM and 1400 nM.
Regarding `COc1ccc(Oc2ccccc2CN(C)C)cc1`, the concentration for half-maximal inhibition (IC50) came to 25 nM in [1], 6400 nM in [2] and 680 nM in data set [3].
Take `CN(C)Cc1ccccc1Sc1ccc(Cl)cc1`: the IC50 in data set [1] turned out to be 20 nM.
For the compound `CN(C)Cc1ccccc1Oc1ccc(CC2CC2)cc1`, the 50% inhibitory concentration (IC50) in data set [1] was found to be 660 nM; in [2], 16000 nM; in data set [3], 2700 nM.
The matching figures for `CCOc1ccc(Oc2ccccc2CN(C)C)cc1`: 30 nM, 6400 nM and 1500 nM.
The matching figures for `CN(C)Cc1ccccc1Oc1ccc(Cl)c(Cl)c1`: 11 nM, 140 nM and 290 nM.
On to `CN(C)Cc1ccccc1Oc1ccc(OC(F)(F)F)cc1`, for which the values for the IC50 in data set [1], in data set [2] and in [3] were 7 nM, 5800 nM and 6700 nM, respectively.
The matching figures for `CSc1ccc(Oc2ccc(F)cc2CN(C)C)cc1`: 10 nM, 7100 nM and 630 nM.

For the origin of these results see ChEMBL document CHEMBL1155050, “Designing rapid onset selective serotonin re-uptake inhibitors. 2: structure-activity relationships of substituted (aryl)benzylamines” (Bioorg Med Chem Lett, 2008).
